Structures can show the parent of a compound that is named as a salt.
How the values were obtained:
[1] = test system: dopamine transporter protein over the norepinephrine transporter protein; conditions: selectivity for dopamine transporter protein over norepinephrine transporter protein; cited from earlier work

Row | SMILES | DAT/NET Ki ratio [1] | melting point
1 | COC(=O)C(c1ccccc1)C1CCCCN1 (stereo not shown) [Methylphenidate, methylphenidate] | 0.1 | 
2 | Cc1ccc(C2CN(C)Cc3c2ccc2ccoc32)cc1 (single isomer, unassigned) (as salt: hydrochloride) |  | 240 to 246 °C
3 | Cc1ccc(C2CN(C)Cc3c2ccc2ccoc32)cc1 (single isomer, unassigned) (as salt: maleate) |  | 190 to 191 °C
4 | CN1Cc2c(ccc3ccoc23)C(c2ccccc2)C1 (single isomer, unassigned) |  | 81 to 83 °C
5 | CN1Cc2c(ccc3ccoc23)C(c2ccccc2)C1 (single isomer, unassigned) (as salt: maleate) |  | 165 to 168 °C
6 | CN1Cc2c(ccc3ccoc23)C(c2ccc(F)cc2)C1 (stereo not shown) (as salt: hydrochloride) |  | 242 to 257 °C
7 | CN1Cc2c(ccc3ccoc23)C(c2cc(F)cc(F)c2)C1 (stereo not shown) (as salt: hydrochloride) |  | 233 to 236 °C

From patent US20060111385A1, “Novel 4-phenyl substituted tetrahydroisoquinolines and therapeutic use thereof” (priority 2004, published 2006)
